Read-outs that look alike come from different tables or passages of the source.
Assay: Fluorescence excitation/emission maxima and relative response per gram (luminescence spectrometer)
Type: physicochemical
Protocol: The appropriate alkyl or aryl amine (0.05 moles) was weighed into a 100 mL round-bottom flask equipped with a magnetic stirrer and containing 15 mL of dry methanol. While stirring, the appropriate dialkyl/diaryl itaconate (0.05 moles/primary amine moiety) dissolved in 15 mL of dry methanol was added dropwise over a period of 10 min. In some cases, a moderate exotherm was noted. The reaction was allowed to stir at RT for 1 h followed by refluxing for 8-10 h. The final product was obtained by removal of the solvent with a Buchi roto-evaporator to give a solid, liquid or syrup with yields ranging from 75-98%. See Table 2 in the Examples and FIGS. 3A-3B for their structures. These final products were characterized by FTIR, ^1H—, ^13C-NMR. Their UV-vis/fluorescence properties were evaluated with a fluorospectrometer (Spectramax from Molecular Devices) yielding data as described in Table 2 in the Examples.
Itaconic acid (Sigma-Aldrich) (0.05 moles/primary amine moiety) was weighed into a 100 mL round-bottom flask equipped with a magnetic stirrer. While stirring, the appropriate alkyl or aryl amine (0.05 moles) was added dropwise over a period of 10 min. […] The flask and reaction mixture was surmounted by a reflux condenser and immersed in an oil bath and heated at 125° C. for 2-5 h. The formation of water condensate from the reaction can be noticed in the condenser. A 25 mL portion of dry methanol is then added and the reaction mixture is refluxed for 1 h. Removal of solvent on a Buchi roto-evaporator produces the desired pyrrolidone product as an oil, syrup or solid in yields ranging from 59-95%. These final products were characterized by using a Thomas-Hoover capillary melting point apparatus, FTIR and ^1H—, ^13C-NMR. Their UV-vis/fluorescence properties were evaluated with a fluorescence spectrometer (Spectramax from Molecular Devices) yielding data as described in Table 2.
Fluorescence data was acquired with a Perkin-Elmer LS50B Luminescence spectrometer. Constant slit widths (Both excitation and emission—3 nm) were used and the concentrations were adjusted to give on scale emission responses. Emission responses were divided by concentration to give response per gram and multiplied by a scaling factor chosen to set the relative response of the standard, fluorescein-Na, to 1,000,000.

[1] = scaled so that fluorescein-Na = 1,000,000
[2] = peak 1, fluorescein-Na = 1,000,000
[3] = peak 2, fluorescein-Na = 1,000,000

Emission Max	Excitation Max	Relative Response/g [1]	Emission Max (peak 1)	Excitation Max (peak 1)	Relative Response/g [2]	Emission Max (peak 2)	Excitation Max (peak 2)	Relative Response/g [3]	Compound
400 nm	340 nm	50.1	–	–	–	–	–	–	c1ccc(C2=NCCN2)cc1 [2-Phenyl-2-imidazoline, reference compound]
385 nm	245 nm	11.8	–	–	–	–	–	–	O=C1CCC(C(=O)O)N1 (stereo not drawn) [2-Pyrrolidone-5-carboxylic acid, reference compound]
350 nm	300 nm	18.7	–	–	–	–	–	–	COC(=O)C1CC(=O)N(CCSSCCN2CC(C(=O)OC)CC2=O)C1 (stereo not drawn) [Compound 31]
380 nm	320 nm	391.7	–	–	–	–	–	–	COC(=O)C1CC(=O)N(CCNC(=O)C2CC(=O)N(CCSSCCN3CC(C(=O)NCCN4CC(C(=O)OC)CC4=O)CC3=O)C2)C1 (stereo not drawn) [Compound 33]
301 nm	277 nm	5.8	–	–	–	–	–	–	COC(=O)C1CC(=O)N(CCNC(=O)C2CC(=O)N(CCNC(=O)C3CC(=O)N(CCSSCCN4CC(C(=O)NCCN5CC(C(=O)NCCN6CC(C(=O)OC)CC6=O)CC5=O)CC4=O)C3)C2)C1 (stereo not drawn) [Compound 35]
–	–	–	302 nm	268 nm	7.0	565 nm	260 nm	6.5	COC(=O)C1CC(=O)N(CCNC(=O)C2CC(=O)N(CCNC(=O)C3CC(=O)N(CCNC(=O)C4CC(=O)N(CCSSCCN5CC(C(=O)NCCN6CC(C(=O)NCCN7CC(C(=O)NCCN8CC(C(=O)OC)CC8=O)CC7=O)CC6=O)CC5=O)C4)C3)C2)C1 (stereo not drawn) [Compound 37]
410 nm	335 nm	2.7	–	–	–	–	–	–	COC(=O)C1CC(=O)N(CCN2CC(C(=O)OC)CC2=O)C1 (stereo not drawn) [Compound 38]
–	–	–	415 nm	355 nm	37.8	420 nm	245 nm	11.1	NCCNC(=O)C1CC(=O)N(CCN2CC(C(=O)NCCN)CC2=O)C1 (stereo not drawn) [Compound 39]
390 nm	305 nm	66.4	–	–	–	–	–	–	COC(=O)C1CC(=O)N(CCNC(=O)C2CC(=O)N(CCN3CC(C(=O)NCCN4CC(C(=O)OC)CC4=O)CC3=O)C2)C1 (stereo not drawn) [Compound 40]
–	–	–	390 nm	340 nm	62.7	455 nm	285 nm	18.7	NCCNC(=O)C1CC(=O)N(CCNC(=O)C2CC(=O)N(CCN3CC(C(=O)NCCN4CC(C(=O)NCCN)CC4=O)CC3=O)C2)C1 (stereo not drawn) [Compound 41]
405 nm	335 nm	30.7	–	–	–	–	–	–	COC(=O)C1CC(=O)N(CCNC(=O)C2CC(=O)N(CCNC(=O)C3CC(=O)N(CCN4CC(C(=O)NCCN5CC(C(=O)NCCN6CC(C(=O)OC)CC6=O)CC5=O)CC4=O)C3)C2)C1 (stereo not drawn) [Compound 42]
440 nm	355 nm	22.8	–	–	–	–	–	–	NCCNC(=O)C1CC(=O)N(CCNC(=O)C2CC(=O)N(CCNC(=O)C3CC(=O)N(CCN4CC(C(=O)NCCN5CC(C(=O)NCCN6CC(C(=O)NCCN)CC6=O)CC5=O)CC4=O)C3)C2)C1 (stereo not drawn) [Compound 43]
450 nm	350 nm	14.5	–	–	–	–	–	–	COC(=O)C1CC(=O)N(CCNC(=O)C2CC(=O)N(CCNC(=O)C3CC(=O)N(CCNC(=O)C4CC(=O)N(CCN5CC(C(=O)NCCN6CC(C(=O)NCCN7CC(C(=O)NCCN8CC(C(=O)OC)CC8=O)CC7=O)CC6=O)CC5=O)C4)C3)C2)C1 (stereo not drawn) [Compound 44]
510 nm	470 nm	1,000,000.0	–	–	–	–	–	–	O=C([O-])c1ccccc1-c1c2ccc(=O)cc-2oc2cc([O-])ccc12.[Na+].[Na+] [Fluorescein-Na, reference compound]
